Measurements published in paper PMC11040352, “CD38‐Specific Gallium‐68 Labeled Peptide Radiotracer Enables Pharmacodynamic Monitoring in Multiple Myeloma with PET” (Advanced Science, 2024).
Several values for one entry are separate records, joined by “and”; a condition that tells them apart may be missing. Equal entries are not always repeated. Where two headings read alike, the source gives them in different places.

Key:
[1] = Octanol/PBS partition coefficient (LogD, pH 7.4); format: physicochemical
Method: Partition coefficients, logD (pH7.4) value, were determined according to a literature procedure.^[ [46] ^] Briefly, a 10 µL solution of [^68Ga]Ga‐AJ206 (around 10 µCi) was added to a solution of 1‐octanol (200 µL) mixed with phosphate buffered saline (PBS) (190 µL) in a 1.5 mL centrifuge tube. After the mixture was vigorously shaken and vortexed, it was centrifuged at 3000 rpm for 5 min. Aliquots (10 µL) were removed from the two phases, and the radioactivity was measured on an automated gamma counter (1282 Compugamma CS, Pharmacia/LKB Nuclear, Inc., Gaithersburg, MD). The logD was calculated as the average log ratio value of the radioactivity in the 1‐octanol fraction and the PBS fraction from the four samples.

[2] = Ex vivo biodistribution in mice with RPMI tumor xenografts; conditions: both sexes, NSG, mouse, 60 min p.i., RPMI xenograft mice; for tissue uptake at 1 h: 50 µCi; for tissue to tissue ratio at 1 h: 50 uCi, total radioactivity
Method: (§1) Animal studies were performed under Johns Hopkins University Animal Care and Use Committee (ACUC‐approved protocol (Principal investigator: Sridhar Nimmagadda, Ph.D. and Protocol number M021M175). Male and female NSG mice (5‐6 weeks old) were used to establish xenografts by administering 3 million cells (50% Corning Matrigel) subcutaneously to form various tumor models within 3–4 weeks. Imaging or biodistribution studies (n = 3–5) were conducted on mice with tumor volumes of 100–200 mm^3. Disseminated tumor models were developed by injecting 4–5 million cells in saline intravenously for MOLP8 and MM1S‐Luc models (n = 4–5). Luciferase expressing MM1S cell line (MM1S‐Luc) was used to monitor cancer cell dissemination in the body. Tumor establishment was confirmed by injecting D‐Luciferin intraperitoneally (150 mg kg^−1) and imaged mice after 10 min in IVIS bioluminescence imaging system. Bone marrow tumors were ready for imaging after 25–30 d of implantation.
(§2) Mice with 100–200 mm^3 tumor volume were used for ex vivo biodistribution studies. For radiotracer pharmacokinetics studies, mice with MOLP8 tumor xenografts received ≈80 µCi (2.96 MBq) [^68Ga]Ga‐AJ206 and were sacrificed at pre‐determined time points (5, 30, 60 and 120 min). Similarly, for dosimetry study, mice with MM1S tumor xenografts received ≈80 µCi (2.96 MBq) of [^68Ga]Ga‐AJ206 and were sacrificed at pre‐determined time points (5, 30, 60, 90 and 120 min). All other mice were injected with ≈50µCi (1.85 MBq) [^68Ga]Ga‐AJ206 and were sacrificed at 60 min. The selected tissues were collected, weighed, counted, and their %ID g^−1 values calculated for biodistribution analysis. The tissues included blood, muscle, tumor, thymus, heart, lung, liver, pancreas, stomach, small intestine, large intestine, spleen, adrenals, kidney, bladder, femur, and brain.

[3] = Ex vivo biodistribution in mice with MOLP8 tumor xenografts; parameters: species or system NSG mice; conditions: both sexes, NSG, mouse, 80 uCi, total radioactivity, MOLP8 xenograft mice; for tissue to tissue ratio at 5 min: 5 min p.i.; for tissue to tissue ratio at 0.5 h: 30 min p.i.; for tissue to tissue ratio at 1 h: 60 min p.i.; for tissue to tissue ratio at 2 h: 120 min p.i.
Method: as §1, §2

MOLP8 tumor xenografts = experiment: as above; parameters: species or system NSG mice; conditions: MOLP8 xenograft mice
Method: as §1, §2

[4] = tumor/blood, read-out: Tumor/blood ratio
[5] = tumor/muscle, read-out: Tumor/muscle ratio
[6] = 60 min p.i., listed as [68Ga]Ga-AJ206

## CC[C@H](C)[C@@H]1NC(=O)[C@@H]2CCCN2C(=O)[C@H](Cc2ccccc2)NC(=O)[C@H](CC(=O)O)NC(=O)[C@H](C)NC(=O)[C@@H]2CSCc3cc(cc(c3)CSC[C@H](NC(=O)[C@H](C)NC(=O)CCOCCOCCOCCNC(=O)CN3CCN(CC(=O)O)CCN(CC(=O)O)CC3)C(=O)N[C@@H](C(C)C)C(=O)N3CCC[C@H]3C(=O)N2)CSC[C@@H](C(N)=O)NC(=O)[C@H](Cc2ccc(O)cc2)NC(=O)[C@H](Cc2c[nH]c3ccccc23)NC1=O [[^68Ga]Ga‐AJ206, metal not drawn]
[1]
  logD: -1.32 ± 0.08
[2]; blood, read-out: uptake in blood
  tissue uptake at 1 h: 0.98 ± 0.48 %ID/g
[2]; heart, read-out: uptake in heart
  tissue uptake at 1 h: 0.63 ± 0.21 %ID/g
[2]; kidney, read-out: uptake in kidney
  tissue uptake at 1 h: 17.8 ± 3.48 %ID/g
[2]; liver, read-out: uptake in liver
  tissue uptake at 1 h: 1.27 ± 0.3 %ID/g
[2]; lung, read-out: uptake in lung
  tissue uptake at 1 h: 1 ± 0.26 %ID/g
[2]; muscle, read-out: uptake in muscle
  tissue uptake at 1 h: 0.49 ± 0.07 %ID/g
[2]; pancreas, read-out: uptake in pancreas
  tissue uptake at 1 h: 0.48 ± 0.15 %ID/g
[2]; small intestine, read-out: uptake in small intestine
  tissue uptake at 1 h: 0.59 ± 0.25 %ID/g
[2]; spleen, read-out: uptake in spleen
  tissue uptake at 1 h: 1.09 ± 0.15 %ID/g
[2]; stomach, read-out: uptake in stomach
  tissue uptake at 1 h: 0.45 ± 0.07 %ID/g
[2]; tumor, read-out: uptake in tumor
  tissue uptake at 1 h: 1.78 ± 0.36 %ID/g
[2]; tumor/blood, read-out: Tumor/Blood ratio
  tissue to tissue ratio at 1 h: 2.69 ± 0.65
[2]; tumor/muscle, read-out: Tumor/Muscle ratio
  tissue to tissue ratio at 1 h: 3.72 ± 0.73
[3]; [4]
  tissue to tissue ratio at 5 min: 0.32 ± 0.04
  tissue to tissue ratio at 0.5 h: 1.43 ± 0.46
  tissue to tissue ratio at 1 h: > 7
  tissue to tissue ratio at 2 h: 19.7 ± 6.57
[3]; [5]
  tissue to tissue ratio at 5 min: 2.94 ± 0.47
  tissue to tissue ratio at 0.5 h: 7.28 ± 1.89
  tissue to tissue ratio at 1 h: > 25
  tissue to tissue ratio at 2 h: 27.4 ± 18.6
MOLP8 tumor xenografts; 5 min p.i.
  uptake in blood: 8.25 ± 0.50 %ID g^−1
  uptake in femur: 1.42 ± 0.09 %ID g^−1
  uptake in heart: 3.13 ± 0.27 %ID g^−1
  uptake in kidney: 11.17 ± 0.65 %ID g^−1
  uptake in liver: 21.24 ± 1.31 %ID g^−1
  uptake in lungs: 6.16 ± 0.16 %ID g^−1
  uptake in muscle: 0.92 ± 0.11 %ID g^−1
  uptake in small intestine: 1.95 ± 0.08 %ID g^−1
  uptake in spleen: 2.28 ± 0.50 %ID g^−1
  uptake in stomach: 1.08 ± 0.07 %ID g^−1
  uptake in tumor: 2.58 ± 0.18 %ID g^−1
MOLP8 tumor xenografts; 30 min p.i.
  uptake in blood: 2.07 ± 0.30 %ID g^−1
  uptake in femur: 0.65 ± 0.08 %ID g^−1
  uptake in heart: 0.83 ± 0.18 %ID g^−1
  uptake in kidney: 17.09 ± 1.77 %ID g^−1
  uptake in liver: 6.39 ± 3.71 %ID g^−1
  uptake in lungs: 1.86 ± 0.29 %ID g^−1
  uptake in muscle: 0.37 ± 0.05 %ID g^−1
  uptake in small intestine: 0.59 ± 0.14 %ID g^−1
  uptake in spleen: 0.75 ± 0.14 %ID g^−1
  uptake in stomach: 0.51 ± 0.06 %ID g^−1
  uptake in tumor: 2.91 ± 0.84 %ID g^−1
MOLP8 tumor xenografts; 60 min p.i.
  Tumor/blood ratio: 7.20 ± 0.89
  Tumor/muscle ratio: 27.12 ± 2.73
  uptake in blood: 0.56 ± 0.09 %ID g^−1
  uptake in femur: 0.28 ± 0.07 %ID g^−1
  uptake in heart: 0.29 ± 0.03 %ID g^−1
  uptake in kidney: 16 %ID g^−1 and 16.65 ± 2.52 %ID g^−1
  uptake in liver: 1.22 ± 0.09 %ID g^−1
  uptake in lungs: 0.71 ± 0.10 %ID g^−1
  uptake in muscle: 0.14 ± 0.02 %ID g^−1
  uptake in small intestine: 0.65 ± 0.09 %ID g^−1
  uptake in spleen: 0.39 ± 0.03 %ID g^−1
  uptake in stomach: 0.25 ± 0.06 %ID g^−1
  uptake in tumor: 3.76 ± 0.25 %ID g^−1
MOLP8 tumor xenografts; [6]
  uptake in blood: 0.56±0.09 %ID g^−1
  uptake in femur: 0.28±0.07 %ID g^−1
  uptake in heart: 0.29±0.03 %ID g^−1
  uptake in kidney: 16.65±2.52 %ID g^−1
  uptake in liver: 1.22±0.09 %ID g^−1
  uptake in lungs: 0.71±0.10 %ID g^−1
  uptake in muscle: 0.14±0.02 %ID g^−1
  uptake in small intestine: 0.65±0.09 %ID g^−1
  uptake in spleen: 0.39±0.03 %ID g^−1
  uptake in stomach: 0.25±0.06 %ID g^−1
  uptake in tumor: 3.76±0.25 %ID g^−1
MOLP8 tumor xenografts; 120 min p.i.
  uptake in blood: 0.05 ± 0.01 %ID g^−1
  uptake in femur: 0.07 ± 0.01 %ID g^−1
  uptake in heart: 0.05 ± 0.01 %ID g^−1
  uptake in kidney: 13.75 ± 0.23 %ID g^−1
  uptake in liver: 0.42 ± 0.01 %ID g^−1
  uptake in lungs: 0.16 ± 0.03 %ID g^−1
  uptake in muscle: 0.07 ± 0.04 %ID g^−1
  uptake in small intestine: 0.18 ± 0.04 %ID g^−1
  uptake in spleen: 0.17 ± 0.02 %ID g^−1
  uptake in stomach: 0.03 ± 0.01 %ID g^−1
  uptake in tumor: 1.46 ± 0.02 %ID g^−1
MOLP8 tumor xenografts; by 60 min
  blood pool activity cleared: ~95%
